In the supplement of paper PMC10307832:

Columns and labels:
Assay in all cases: relative viability (nuclei count vs DMSO), 5 days (fraction); higher = more cells survive
[1] = test system: NCI-H2009
Method in brief: (§1)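 Cells from lung cancer lines were seeded into 1536-well plates and, one day later, dosed by pin tool. Treatments were either a single drug or a fixed dose of an anchor drug with five library-drug doses (not always all listed) in √10 steps. After 5 days, nuclei were stained in a one-step fixation (final 0.05% Triton X-100, 1% formaldehyde, 1 ug/ml Hoechst) and counted on 4× images, and relative viability is the treated-to-vehicle nuclei ratio, as the median of duplicate plates.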

[2] = test system: NCI-H3122
Method in brief: as §1

[3] = test system: NCI-H2085
Method in brief: as §1

[4] = test system: HCC-44
Method in brief: as §1

[5] = test system: HCC-366
Method in brief: as §1

[6] = test system: PC-14
Method in brief: as §1

[7] = test system: NCI-H1734
Method in brief: as §1

[8] = test system: ABC-1
Method in brief: as §1

[9] = test system: COR-L23
Method in brief: as §1

[10] = test system: ChaGo-K-1
Method in brief: as §1

[11] = test system: EPLC-272H
Method in brief: as §1

[12] = test system: NCI-H2023
Method in brief: as §1

[13] = test system: NCI-H1944
Method in brief: as §1

[14] = test system: HCC-827
Method in brief: as §1

[15] = test system: NCI-H1793
Method in brief: as §1

[16] = test system: LCLC-103H
Method in brief: as §1

[17] = test system: HCC-15
Method in brief: as §1

[18] = test system: NCI-H2347
Method in brief: as §1

[19] = test system: SW 1573
Method in brief: as §1

[20] = test system: NCI-H1355
Method in brief: as §1

[21] = test system: NCI-H2405
Method in brief: as §1

SMILES: CN1CCN(CCOc2cc(OC3CCOCC3)c3c(Nc4c(Cl)ccc5c4OCO5)ncnc3c2)CC1 [Saracatinib] + Nc1ncn([C@H]2C[C@H](O)[C@@H](CO)O2)c(=O)n1 [Decitabine] (partner 2 µM)
- relative viability ([1]; first compound 0.02 µM): 0.406
- relative viability ([1]; first compound 0.2 µM): 0.35
- relative viability ([1]; first compound 0.6325 µM): 0.35
- relative viability ([1]; first compound 2 µM): 0.322
- relative viability ([2]; first compound 0.02 µM): 0.365
- relative viability ([2]; first compound 0.2 µM): 0.375
- relative viability ([2]; first compound 0.6325 µM): 0.314
- relative viability ([2]; first compound 2 µM): 0.294
- relative viability ([3]; first compound 0.02 µM): 0.531
- relative viability ([3]; first compound 0.2 µM): 0.478
- relative viability ([3]; first compound 0.6325 µM): 0.602
- relative viability ([3]; first compound 2 µM): 0.469
- relative viability ([4]; first compound 0.02 µM): 0.964
- relative viability ([4]; first compound 0.2 µM): 0.854
- relative viability ([4]; first compound 0.6325 µM): 0.994
- relative viability ([4]; first compound 2 µM): 0.94
- relative viability ([5]; first compound 0.02 µM): 0.321
- relative viability ([5]; first compound 0.2 µM): 0.148
- relative viability ([5]; first compound 0.6325 µM): 0.293
- relative viability ([5]; first compound 2 µM): 0.194
- relative viability ([6]; first compound 0.02 µM): 0.219
- relative viability ([6]; first compound 0.2 µM): 0.182
- relative viability ([6]; first compound 0.6325 µM): 0.158
- relative viability ([6]; first compound 2 µM): 0.118
- relative viability ([7]; first compound 0.02 µM): 0.524
- relative viability ([7]; first compound 0.6325 µM): 0.491
- relative viability ([7]; first compound 2 µM): 0.475
- relative viability ([8]; first compound 0.02 µM): 1.01
- relative viability ([8]; first compound 0.2 µM): 1.04
- relative viability ([8]; first compound 0.6325 µM): 1.06
- relative viability ([8]; first compound 2 µM): 1.02
- relative viability ([9]; first compound 0.02 µM): 0.44
- relative viability ([9]; first compound 0.2 µM): 0.385
- relative viability ([9]; first compound 0.6325 µM): 0.419
- relative viability ([9]; first compound 2 µM): 0.335
- relative viability ([10]; first compound 0.02 µM): 0.577
- relative viability ([10]; first compound 0.2 µM): 0.427
- relative viability ([10]; first compound 0.6325 µM): 0.579
- relative viability ([10]; first compound 2 µM): 0.542
- relative viability ([11]; first compound 0.02 µM): 0.388
- relative viability ([11]; first compound 0.2 µM): 0.361
- relative viability ([11]; first compound 0.6325 µM): 0.442
- relative viability ([11]; first compound 2 µM): 0.37
- relative viability ([12]; first compound 0.02 µM): 0.245
- relative viability ([12]; first compound 0.2 µM): 0.176
- relative viability ([12]; first compound 0.6325 µM): 0.204
- relative viability ([12]; first compound 2 µM): 0.222
- relative viability ([13]; first compound 0.02 µM): 0.423
- relative viability ([13]; first compound 0.2 µM): 0.356
- relative viability ([13]; first compound 0.6325 µM): 0.434
- relative viability ([13]; first compound 2 µM): 0.371
- relative viability ([14]; first compound 0.02 µM): 0.359
- relative viability ([14]; first compound 0.2 µM): 0.225
- relative viability ([14]; first compound 0.6325 µM): 0.19
- relative viability ([14]; first compound 2 µM): 0.151
- relative viability ([15]; first compound 0.02 µM): 0.543
- relative viability ([15]; first compound 0.2 µM): 0.338
- relative viability ([15]; first compound 0.6325 µM): 0.504
- relative viability ([15]; first compound 2 µM): 0.403
- relative viability ([16]; first compound 0.02 µM): 0.774
- relative viability ([16]; first compound 0.2 µM): 0.653
- relative viability ([16]; first compound 0.6325 µM): 0.72
- relative viability ([16]; first compound 2 µM): 0.716
- relative viability ([17]; first compound 0.02 µM): 0.73
- relative viability ([17]; first compound 0.2 µM): 0.62
- relative viability ([17]; first compound 0.6325 µM): 0.605
- relative viability ([17]; first compound 2 µM): 0.557
- relative viability ([18]; first compound 0.02 µM): 0.629
- relative viability ([18]; first compound 0.2 µM): 0.538
- relative viability ([18]; first compound 0.6325 µM): 0.595
- relative viability ([18]; first compound 2 µM): 0.578
- relative viability ([19]; first compound 0.02 µM): 0.512
- relative viability ([19]; first compound 0.2 µM): 0.481
- relative viability ([19]; first compound 0.6325 µM): 0.458
- relative viability ([19]; first compound 2 µM): 0.434
- relative viability ([20]; first compound 0.02 µM): 0.345
- relative viability ([20]; first compound 0.2 µM): 0.35
- relative viability ([20]; first compound 0.6325 µM): 0.358
- relative viability ([20]; first compound 2 µM): 0.354
- relative viability ([21]; first compound 0.02 µM): 0.698
- relative viability ([21]; first compound 0.2 µM): 0.717
- relative viability ([21]; first compound 0.6325 µM): 0.583
- relative viability ([21]; first compound 2 µM): 0.4

SMILES: Cc1csc(=NC2CCCCC2)n1/N=C/c1ccc(O)c(O)c1O [MIM1] + Nc1ncn([C@H]2C[C@H](O)[C@@H](CO)O2)c(=O)n1 [Decitabine] (partner 2 µM)
- relative viability ([1]; first compound 0.2 µM): 0.401
- relative viability ([1]; first compound 0.6325 µM): 0.39
- relative viability ([1]; first compound 2 µM): 0.371
- relative viability ([1]; first compound 6.325 µM): 0.36
- relative viability ([1]; first compound 20 µM): 0.291
- relative viability ([2]; first compound 0.2 µM): 0.449
- relative viability ([2]; first compound 0.6325 µM): 0.507
- relative viability ([2]; first compound 2 µM): 0.487
- relative viability ([2]; first compound 6.325 µM): 0.407
- relative viability ([2]; first compound 20 µM): 0.411
- relative viability ([3]; first compound 0.2 µM): 0.539
- relative viability ([3]; first compound 0.6325 µM): 0.522
- relative viability ([3]; first compound 2 µM): 0.516
- relative viability ([3]; first compound 6.325 µM): 0.491
- relative viability ([3]; first compound 20 µM): 0.563
- relative viability ([4]; first compound 0.2 µM): 0.905
- relative viability ([4]; first compound 0.6325 µM): 0.85
- relative viability ([4]; first compound 2 µM): 0.866
- relative viability ([4]; first compound 6.325 µM): 0.479
- relative viability ([4]; first compound 20 µM): 0.405
- relative viability ([5]; first compound 0.2 µM): 0.295
- relative viability ([5]; first compound 2 µM): 0.354
- relative viability ([5]; first compound 6.325 µM): 0.176
- relative viability ([5]; first compound 20 µM): 0.0249
- relative viability ([6]; first compound 0.2 µM): 0.17
- relative viability ([6]; first compound 0.6325 µM): 0.197
- relative viability ([6]; first compound 2 µM): 0.201
- relative viability ([6]; first compound 6.325 µM): 0.137
- relative viability ([6]; first compound 20 µM): 0.0966
- relative viability ([7]; first compound 0.2 µM): 0.458
- relative viability ([7]; first compound 0.6325 µM): 0.492
- relative viability ([7]; first compound 2 µM): 0.452
- relative viability ([7]; first compound 6.325 µM): 0.323
- relative viability ([7]; first compound 20 µM): 0.178
- relative viability ([8]; first compound 0.2 µM): 0.974
- relative viability ([8]; first compound 0.6325 µM): 1.28
- relative viability ([8]; first compound 2 µM): 1.14
- relative viability ([8]; first compound 6.325 µM): 0.944
- relative viability ([8]; first compound 20 µM): 0.427
- relative viability ([9]; first compound 0.2 µM): 0.405
- relative viability ([9]; first compound 0.6325 µM): 0.475
- relative viability ([9]; first compound 2 µM): 0.418
- relative viability ([9]; first compound 6.325 µM): 0.346
- relative viability ([9]; first compound 20 µM): 0.225
- relative viability ([10]; first compound 0.2 µM): 0.542
- relative viability ([10]; first compound 0.6325 µM): 0.527
- relative viability ([10]; first compound 2 µM): 0.544
- relative viability ([10]; first compound 6.325 µM): 0.459
- relative viability ([10]; first compound 20 µM): 0.18
- relative viability ([11]; first compound 0.2 µM): 0.36
- relative viability ([11]; first compound 0.6325 µM): 0.382
- relative viability ([11]; first compound 2 µM): 0.375
- relative viability ([11]; first compound 6.325 µM): 0.29
- relative viability ([11]; first compound 20 µM): 0.154
- relative viability ([12]; first compound 0.2 µM): 0.24
- relative viability ([12]; first compound 0.6325 µM): 0.215
- relative viability ([12]; first compound 2 µM): 0.212
- relative viability ([12]; first compound 6.325 µM): 0.157
- relative viability ([12]; first compound 20 µM): 0.0821
- relative viability ([13]; first compound 0.2 µM): 0.399
- relative viability ([13]; first compound 0.6325 µM): 0.467
- relative viability ([13]; first compound 2 µM): 0.403
- relative viability ([13]; first compound 6.325 µM): 0.412
- relative viability ([13]; first compound 20 µM): 0.355
- relative viability ([14]; first compound 0.2 µM): 0.331
- relative viability ([14]; first compound 0.6325 µM): 0.334
- relative viability ([14]; first compound 2 µM): 0.305
- relative viability ([14]; first compound 6.325 µM): 0.292
- relative viability ([14]; first compound 20 µM): 0.175
- relative viability ([15]; first compound 0.2 µM): 0.507
- relative viability ([15]; first compound 2 µM): 0.518
- relative viability ([15]; first compound 6.325 µM): 0.479
- relative viability ([15]; first compound 20 µM): 0.495
- relative viability ([16]; first compound 0.2 µM): 0.773
- relative viability ([16]; first compound 0.6325 µM): 0.778
- relative viability ([16]; first compound 2 µM): 0.808
- relative viability ([16]; first compound 6.325 µM): 0.666
- relative viability ([16]; first compound 20 µM): 0.367
- relative viability ([17]; first compound 0.2 µM): 0.634
- relative viability ([17]; first compound 0.6325 µM): 0.607
- relative viability ([17]; first compound 2 µM): 0.66
- relative viability ([17]; first compound 6.325 µM): 0.341
- relative viability ([17]; first compound 20 µM): 0.163
- relative viability ([18]; first compound 0.2 µM): 0.592
- relative viability ([18]; first compound 0.6325 µM): 0.592
- relative viability ([18]; first compound 2 µM): 0.64
- relative viability ([18]; first compound 6.325 µM): 0.574
- relative viability ([18]; first compound 20 µM): 0.527
- relative viability ([19]; first compound 0.2 µM): 0.592
- relative viability ([19]; first compound 0.6325 µM): 0.516
- relative viability ([19]; first compound 2 µM): 0.429
- relative viability ([19]; first compound 6.325 µM): 0.306
- relative viability ([19]; first compound 20 µM): 0.166
- relative viability ([20]; first compound 0.2 µM): 0.361
- relative viability ([20]; first compound 0.6325 µM): 0.343
- relative viability ([20]; first compound 2 µM): 0.386
- relative viability ([20]; first compound 6.325 µM): 0.339
- relative viability ([20]; first compound 20 µM): 0.332
- relative viability ([21]; first compound 0.2 µM): 0.744
- relative viability ([21]; first compound 0.6325 µM): 0.738
- relative viability ([21]; first compound 2 µM): 0.771
- relative viability ([21]; first compound 6.325 µM): 0.561
- relative viability ([21]; first compound 20 µM): 0.421
